Experimental data: publication PMC4279401 (Oncotarget, 2014)
Where “and” joins values, the source holds several entries; their conditions need not be identical. Equal entries are not always repeated. Entries after “also recorded” stand apart in the source; their conditions may differ. Where two headings read alike, the source gives them in different places. Values belong to the molecule of their own block, whether it stands above or below them.

Key:
MDA-MB231 cells [1] = assay: Quantitative PCR of EMT genes; assay type: cell-based, Human; settings: MDA-MB231, qPCR, dose-dependent, in words
Experimental: 10^4 cells/well were incubated with compounds for 14 days with media containing compounds replaced every 3-4 days. Total RNA was extracted from cells using RNeasy mini kit (Qiagen). 100-1000 ng of total RNA was reverse transcribed using iScript™ Reverse Transcription Supermix (Bio-Rad) according to the manufacturer's protocol. Quantitative real-time PCR was carried out using the RT^2 SYBR Green ROX™ qPCR Mastermix (Qiagen) according to the manufacturer's instructions. Measurements were performed in triplicate, using GAPDH or human 18S ribosomal RNA as a reference gene. The sequences of primers used are listed in the Supplementary Table. Real-time PCR was performed using the ABI Prism 7300 sequence detection system.

MDA-MB231 cells [2] = assay: Apoptosis, Annexin V FACS; assay type: cell-based, Human
Experimental: (§1) For apoptosis and cell cycle analysis, 10^5 cells/well were incubated with increasing concentrations of a compound for 7 or 10 days. Apoptosis was determined using the FITC Annexin V Apoptosis Detection Kit I (BD Bioscience) according to the manufacturer's protocol. Cells for cell cycle analysis were fixed in cold 70% ethanol at 4°C and stained with Propidium iodide (Sigma-Aldrich) (20 μg/ml) and RNase A (10 μg/ml) for 30min. Cells were analyzed using a FACS Calibur (BD Biosciences/Applied Biosystems) and data were processed using the program Flowjo (version7.6.5).

[3] = in vivo; cited from earlier work
A549 = assay: Cell proliferation, MTT assay; assay type: cell-based, Human; settings: in words
MDA-MB231 cells [4] = assay: CD44/CD24 flow cytometry; assay type: cell-based, Human; settings: MDA-MB231, FACS, in words
Experimental: (§2) 5 × 10^4 cells/well were incubated with compounds for 14 days. The ALDH activity of cells was determined by using the ALDEFLUOR assay kit (StemCell Technologies) according to the manufacturer's instructions. Combinations of fluorochrome-conjugated monoclonal antibodies against human CD44-FITC and CD24-PE were obtained from BD Biosciences. Primary antibodies or the respective isotype controls (BD Biosciences) were added to the cell suspension, according to the manufacturer's recommendation, and incubated at 4°C for 20 min. Dead cells were eliminated using propidium iodide (Sigma). The labelled cells were analyzed on a FACS Calibur (BD Biosciences/Applied Biosystems).

MDA-MB231 cells [5] = assay: Microarray gene set enrichment analysis; assay type: cell-based, Human; settings: 1 at 5 μM, 2 at 10 μM, in words
Experimental: 10^5 cells/well were incubated with compounds for 14 days. Cells were lysed immediately in TRIzol® Reagent, frozen in liquid nitrogen, and shipped to Asuragen, Inc. (Austin, TX) for microarray experiments. RNA was isolated, amplified, and hybridized to Illumina Human HT-12 v4 arrays according to the manufacturer's protocol. Microarray data were log2 transformed and then normalized to have the same median for all the arrays. Moderate t-statistics were used to test if genes were differentially expressed between the groups of interest. Benjamini and Hochberg method was used to correct for multiple comparisons. R and Bioconductor packages were used for all the statistical analyses (http://cran.us.r-project.org/, http://www.bioconductor.org/). Gene set enrichment analysis was performed using GSEA software from Broad Institute (Boston, MA).

MDA-MB231 cells [6] = assay: ALDEFLUOR assay; assay type: cell-based, Human; settings: in words
Experimental: as §2

MDA-MB231 [7] = assay: Transwell cell migration assay; assay type: cell-based, Human; settings: MDA-MB231, Transwell with and without Matrigel, in words
Experimental: 5 × 10^4 cells/well were incubated with compounds for 14 days. For transwell migration assays, 5× 10^4 cells were plated in the top chamber with the non-coated membrane (24-well insert; pore size, […]; BD Biosciences). For invasion assays, 5× 10^4 cells were plated in the top chamber with Matrigel-coated membrane. The cells on the apical side of each insert were then scraped off after 22 h for both assays. The wells were washed with PBS, fixed with 100% methanol and stained with DAPI. Cells that had migrated to the basal side of the membrane were visualized and counted with a Nikon Eclipse TE2000-U microscope at 10×. Pictures of three random fields were obtained and the number of cells that had migrated quantified using ImageJ analysis software.

MDA-MB231 cells [8] = assay: Cell cycle analysis, propidium iodide FACS; assay type: cell-based, Human; settings: MDA-MB231, in words
Experimental: as §1

[9] = test system: methylation at H3K4, H3K9, H3K27, H3K36 and H4K20; assay: Western blot of methylation at other histone lysines in MDA-MB231; assay type: cell-based, Human; settings: at concentrations of <1 μM, in words
Experimental: (§3) 10^6 cells/well were incubated with increasing concentrations of a compound for 5 days and histones extracted with the EpiQuik™ Total Histone Extraction Kit (Epigentek) according to the manufacturer's protocol. Equal amounts of histones (2μg) were separated on SDS-PAGE and transferred to PVDF membranes. The blots were probed with primary antibodies, followed by anti-rabbit IgG (Thermo Scientific) secondary antibodies. For western blot analysis of MDA-MB231 xenograft tumors, tumors were harvested and frozen in liquid nitrogen. Histones were extracted and analyzed by immunoblotting as described above.

[10] = test system: MDA-MB231, BT549 and MCF-7 breast cancer cells; assay: Cell proliferation, MTT assay, DOT1L+ breast cancer cells; assay type: cell-based, Human; settings: Homo sapiens
BT549 = assay: Cell proliferation, MTT assay; assay type: cell-based; settings: Homo sapiens
MDA-MB231 [11] = assay: Cell proliferation, MTT assay; assay type: cell-based; settings: Homo sapiens
MCF-7 = assay: Cell proliferation, MTT assay; assay type: cell-based; settings: Homo sapiens
H3K79 methylation = assay: Western blot of histone methylation in MDA-MB231; assay type: cell-based, Human; settings: for effect on H3K79 methylation: in words
Experimental: (§4) Human cell lines BT549, MDA-MB231, MCF-7, MDA-MB157, HCC70, A549 and NB4 were obtained from the American Type Culture Collection (ATCC) and cultured using ATCC recommended conditions. Primary antibodies against H3K79me2, H3K27me3, H3K4me3, H3K36me2, H4K20me3, H3K9me-pan were purchased from Cell Signaling (Danvers, MA). siRNA experiments were performed by transfecting MDA-MB-231 cells with X-tremeGENE Transfection Reagent (Roche) and 10 nM siRNA (Invitrogen), according to the manufacturer's protocol.
as §3

H3K27 methylation [12] = assay: Western blot of histone methylation in MDA-MB231; assay type: cell-based; settings: Homo sapiens, MDA-MB-231, Fig. 4b, read-out: IC50 against H3K27 methylation
Experimental: as §3

H3K27 methylation [13] = assay: Western blot of histone methylation in BT549; assay type: cell-based, Human
Experimental: as §3

EZH2 = settings: read-out: Ki against EZH2; cited from earlier work
[14] = target: other lysine methyltransferases; settings: read-out: Ki against other lysine methyltransferases; cited from earlier work
MDA-MB231 [15] = assay: Cell proliferation after DOT1L siRNA; assay type: cell-based, Human; settings: MDA-MB231, siRNA treatment, in words
Experimental: as §4, with “protocol. The sequences for DOT1L siRNA (Invitrogen) were: • siRNA-1: 634-[…]; • siRNA-2: 117-[…]; • siRNA-3: 104-[…]; • siRNA-4: 470-[…]; • siRNA-5: 120-[…]. • siRNA-`mock represents an siRNA that has no homology to any vertebrate transcriptome.” for “protocol.”

Molecule: CC(C)N(CCCNC(=O)Nc1ccc(C(C)(C)C)cc1)CC1OC(n2cnc3c(N)ncnc32)C(O)C1O (centres unmarked) [Compound 2, SYC-522]
gene expression of E-cadherin (MDA-MB231 cells [1]): increase | gene expression of TGF-β, Snail and Zeb (MDA-MB231 cells [1]): significantly reduce | apoptosis (MDA-MB231 cells [2]; MDA-MB231, 2 μM, in words): negligible amount of apoptosis | apoptotic rate (MDA-MB231 cells [2]; MDA-MB231, 10 μM): 7.8% and ~ 8% | pharmacokinetics [3]: poor pharmacokinetics with short plasma half-lives | activity against A549 cells (A549): negligible activity | CD44+/CD24− cell population (MDA-MB231 cells [4]): significantly decreased | cell population expressing high levels of CD24 (MDA-MB231 cells [4]): considerably more cells expressed higher levels of CD24; also recorded: increased cell population | genes whose expression is low in breast CSCs (GSEA) (MDA-MB231 cells [5]): upregulation | pro-proliferation genes in the PAM50 gene set (GSEA) (MDA-MB231 cells [5]): downregulation | ALDH+ cell population (MDA-MB231 cells [6]): considerably reduced | cell migration and invasion (MDA-MB231 [7]): reduced abilities of cell migration and invasion | sub-G1 phase cell population (MDA-MB231 cells [8]): increased sub-G1 phase cell population; also recorded: moderately increased pre-G phase cell population

Molecule: Nc1nccc2c1ncn2C1C=C(CO)C(O)C1O (centres unmarked) [Compound 4, 3-deazaneplanocin A]
inhibitory activity against methylation at H3K4, H3K9, H3K27, H3K36 and H4K20 [9]: no or negligible inhibitory activities; also recorded: negligible effects | EC50 ([10]; 72 h, read-out: EC50, 3-day treatment): > 20 µM | EC50 ([10]; 360 h, read-out: anti-proliferation EC50): 0.035 to 0.48 µM | EC50 (BT549; BT-549, 72 h, read-out: Anti-proliferative activity EC50): > 20 µM | EC50 (BT549; BT-549, 360 h, read-out: EC50, 15-day treatment): 0.065 µM | EC50 (MDA-MB231 [11]; MDA-MB-231, 72 h, read-out: Anti-proliferative activity EC50): > 20 µM | EC50 (MDA-MB231 [11]; MDA-MB-231, 360 h, read-out: EC50, 15-day treatment): 0.035 µM | EC50 (MCF-7; MCF7, 72 h, read-out: Anti-proliferative activity EC50): > 20 µM | EC50 (MCF-7; MCF7, 360 h, read-out: EC50, 15-day treatment): 0.48 µM | IC50 (H3K79 methylation; Homo sapiens, MDA-MB-231, read-out: IC50 of H3K79 methylation inhibition): ~50 nM | IC50 (H3K27 methylation [12]): > 6 µM

EC50 ([10]; three breast cancer cells, regardless of the treatment durations, read-out: anti-proliferation EC50): 11 to 35 µM | EC50 (BT549; BT-549, 72 h, BT549, 3-day treatment, read-out: Anti-proliferative activity EC50): 34 µM | EC50 (BT549; BT-549, 360 h, BT549, 15-day treatment, read-out: Anti-proliferative activity EC50): 35 µM | IC50 (H3K27 methylation [13]; Homo sapiens, BT-549, 5 days, breast cancer cells, Fig. 4d (BT549), read-out: IC50 of H3K27 methylation inhibition): ~50 nM | EC50 (MDA-MB231 [11]; MDA-MB-231, 72 h, MDA-MB231, 3-day treatment, read-out: Anti-proliferative activity EC50): 11 µM | EC50 (MDA-MB231 [11]; MDA-MB-231, 360 h, MDA-MB231, 15-day treatment, read-out: Anti-proliferative activity EC50): 13 µM | EC50 (MCF-7; MCF7, 72 h, MCF-7, 3-day treatment, read-out: Anti-proliferative activity EC50): 28 µM | EC50 (MCF-7; MCF7, 360 h, MCF-7, 15-day treatment, read-out: Anti-proliferative activity EC50): 12 µM
Molecule: Cc1cc(C)c(CNC(=O)c2cc(-c3ccc(CN4CCOCC4)cc3)cc3c2cnn3C2CCCC2)c(=O)[nH]1 [Compound 5, EPZ005687]
selectivity of histone methylation inhibition (H3K27 methylation [13]; BT549, Western blot, in words): only inhibited H3K27 methylation | Ki (EZH2): 0.024 µM

Molecule: Nc1ncnc2c1ncn2[C@@H]1O[C@H](CSCC[C@H](N)C(=O)O)[C@@H](O)[C@H]1O [SAH, S-adenosyl-homocycteine]
Ki [14]: > 1000 nM | Ki (EZH2): 7.5 µM

Molecule: siRNA-1: DOT1L siRNA (Invitrogen): 634-CGCGAGUUCAGGAAGUGGAUGAAAU (other strand not given here)
effect on H3K79 methylation (H3K79 methylation): significantly reduced H3K79 methylation | effect on cell proliferation (MDA-MB231 [15]): slowed down cell proliferation; also recorded: significantly inhibited cell proliferation

Molecule: siRNA-2: DOT1L siRNA (Invitrogen): 117-CGAUAAACAUCACGAUGCUGCUCAU (other strand not given here)
effect on H3K79 methylation (H3K79 methylation): considerably weaker inhibition | effect on cell proliferation (MDA-MB231 [15]): did not significantly affect the growth

Molecule: siRNA-3: DOT1L siRNA (Invitrogen): 104-CGCUGCCGGUCUACGAUAAACAUCA (other strand not given here)
effect on H3K79 methylation (H3K79 methylation): considerably weaker inhibition | effect on cell proliferation (MDA-MB231 [15]): did not significantly affect the growth

Molecule: siRNA-4: DOT1L siRNA (Invitrogen): 470-CCCAGAUGAUUGAUGAGAUCAAGAU (other strand not given here)
effect on H3K79 methylation (H3K79 methylation): significantly reduced H3K79 methylation | effect on cell proliferation (MDA-MB231 [15]): inhibited cell proliferation
